Tests used:
[1] = tested on: urinary 11-dehydrothromboxane B2 (TXB2); assay: Test Example 3: urinary 11-dehydrothromboxane B2 by immunoenzyme assay, Compound Danshen Tablets study; format: in vivo, human; conditions: group mean, n = 50; cardiovascular outpatients with tendency of aspirin resistance; drugs for at least half a year
From the text: 150 patients in this study were all selected from the cardiovascular outpatients having the tendency of aspirin resistance. All the patients, including 80 males and 70 females, aged between 70˜85, with the average age of 77. To treat aspirin resistance, 50 patients administered aspirin (aspirin group), 50 patients administered Compound Danshen Tablets (CDT group), and 50 patients administered aspirin and CDT simultaneously (combination therapy group). All the patients administered drugs for at least half a year before sampling.
The urinary sample was the middle section of the first urina of the day. The urinary sample was placed in the liquid nitrogen immediately after sampling and stored at −86□ in a low-temperature refrigerator. The urinary 11-dehydrothromboxane B2 (TXB2) was determined by immunoenzyme assay using the reagent kit of Cayman Chemical company. […] Information about patient grouping was double-blind for researchers and statisticians.

[2] = tested on: urinary 11-dehydrothromboxane B2 (TXB2); assay: Test Example 2: urinary 11-dehydrothromboxane B2 by immunoenzyme assay, CDDP study; format: in vivo, human; conditions: group mean, n = 50; drugs for at least half a year
From the text: This study adopted a reviewing method, and the normal value referred to the research results about aspirin resistance in Australia.
All 178 patients, including 140 males and 38 females, came from the retired personnel of the First Sanatorium, Bafenbu Sanatorium. The patients were aged 70˜87 and the average age was 77.1. 170 patients were randomly selected for sample test and the number of patients whose data could be accepted was 150 (IC20˜IC80). Of those enrolled in the study, in addition to aspirin resistance, 91 patients were afflicted with hypertension, 25 patients were afflicted with hyperlipidemia, 32 patients were afflicted with diabetes, 139 patients were afflicted with coronary heart disease, and 57 patients were afflicted with cerebrovascular diseases. […] All the patients administered drugs for at least half a year before sampling.
The urinary sample was the middle section of the first urina of the day. The urinary sample was placed in the liquid nitrogen immediately after sampling and stored at −86[…] in a low-temperature refrigerator. The urinary 11-dehydrothromboxane B2 (TXB2) was determined by immunoenzyme assay using the reagent kit of Cayman Chemical company. All the experiments were completed in the Biological Institute of Tasly Research Academy. Information about patient grouping was double-blind for researchers and statisticians. […]

## CC(=O)Oc1ccccc1C(=O)O [Aspirin, aspirin]
[1]
  Urinary 11-dehydro TXB2, X ± SD: 25.05 ± 10.42 ng/mmol
[2]
  Urinary 11-dehydro TXB2, X ± SD: 25.02 ± 10.51 ng/mmol
